Reference: ChEMBL document CHEMBL3576838, “Synthesis and in vitro and in vivo biological evaluation of substituted nitroquinoxalin-2-ones and 2,3-diones as novel trichomonacidal agents” (Eur J Med Chem, 2015)

How the values were obtained:
[1] = system: Trichomonas vaginalis; assay: Trichomonicidal activity against Trichomonas vaginalis JH31A#4 trophozite assessed as inhibition of parasite growth at 10 ug/ml after 24 hrs by resazurin redox dye based fluorimetric microtiter method; assay type: functional; settings: JH31A#4, 24 h, read-out: GI
[2] = Cytotoxicity against African green monkey Vero cells assessed as inhibition of cell growth after 24 hrs by resazurin redox dye based fluorimetric microtiter method; settings: chlorocebus sabaeus
[3] = system: Trichomonas vaginalis; assay: Trichomonicidal activity against Trichomonas vaginalis JH31A#4 trophozite assessed as inhibition of parasite growth at 18.75 uM after 24 hrs by resazurin redox dye based fluorimetric microtiter method; assay type: functional; settings: JH31A#4, 24 h
[4] = system: Trichomonas vaginalis; assay: Trichomonicidal activity against Trichomonas vaginalis JH31A#4 trophozite assessed as inhibition of parasite growth at 75 uM after 24 hrs by resazurin redox dye based fluorimetric microtiter method; assay type: functional; settings: JH31A#4, 24 h
[5] = Selectivity index, ratio of CC50 for African green monkey Vero cells to IC50 for Trichomonas vaginalis JH31A#4 trophozite; assay type: functional
[6] = system: Trichomonas vaginalis; assay: Trichomonicidal activity against Trichomonas vaginalis JH31A#4 trophozite assessed as inhibition of parasite growth at 150 uM after 24 hrs by resazurin redox dye based fluorimetric microtiter method; assay type: functional; settings: JH31A#4, 24 h
[7] = system: Trichomonas vaginalis; assay: Trichomonicidal activity against Trichomonas vaginalis JH31A#4 trophozite assessed as inhibition of parasite growth at 37.5 uM after 24 hrs by resazurin redox dye based fluorimetric microtiter method; assay type: functional; settings: JH31A#4, 24 h
[8] = system: Trichomonas vaginalis; assay: Trichomonicidal activity against Trichomonas vaginalis JH31A#4 trophozite assessed as inhibition of parasite growth at 9.37 uM after 24 hrs by resazurin redox dye based fluorimetric microtiter method; assay type: functional; settings: JH31A#4, 24 h
[9] = system: Vero; assay: Cytotoxicity against African green monkey Vero cells at 300 uM after 24 hrs by resazurin redox dye based fluorimetric microtiter method; assay type: cell-based; settings: chlorocebus sabaeus
[10] = system: Trichomonas vaginalis; assay: Trichomonicidal activity against Trichomonas vaginalis JH31A#4 trophozite assessed as inhibition of parasite growth at 300 uM after 24 hrs by resazurin redox dye based fluorimetric microtiter method; assay type: functional; settings: JH31A#4, 24 h
[11] = system: Trichomonas vaginalis; assay: Trichomonicidal activity against Trichomonas vaginalis JH31A#4 trophozite assessed as inhibition of parasite growth after 24 hrs by resazurin redox dye based fluorimetric microtiter method; assay type: functional, organism-based; settings: JH31A#4, 24 h
[12] = system: Trichomonas vaginalis; assay: Trichomonicidal activity against Trichomonas vaginalis C-1:NIH trophozoites infected in NMRI mouse assessed as reduction of pathogenicity at 100 mg/kg, po administered for 7 days from day 3 to day 10 post-infection measured at day 15 post-infection; assay type: functional
[13] = system: Mus musculus; assay: Toxicity against NMRI mouse infected with Trichomonas vaginalis C-1:NIH trophozoites assessed as animal death at 50 to 100 mg/kg, po administered for 7 days from day 3 to day 10 post-infection measured at day 15 post-infection; assay type: organism-based; settings: in vivo, 168 h
[14] = system: Trichomonas vaginalis; assay: Trichomonicidal activity against Trichomonas vaginalis C-1:NIH trophozoites infected in NMRI mouse assessed as reduction of pathogenicity at 50 mg/kg, po administered for 7 days from day 3 to day 10 post-infection measured at day 15 post-infection; assay type: functional
[15] = system: Trichomonas vaginalis; assay: Trichomonicidal activity against Trichomonas vaginalis C-1:NIH trophozoites infected in NMRI mouse assessed as reduction of pathogenicity at 25 mg/kg/day, po administered for 7 days from day 3 to day 10 post-infection measured at day 15 post-infection; assay type: functional

| Structure (SMILES) | inhibition of growth at 10 µg/mL [1] [%] | CC50 at 24 h [2] [µM] | inhibition at 18.75 µM [3] [%] | inhibition at 75 µM [4] [%] | Ratio CC50/IC50 [5] | inhibition at 150 µM [6] [%] | inhibition at 37.5 µM [7] [%] | inhibition at 9.37 µM [8] [%] | Activity [9] [%] | inhibition at 300 µM [10] [%] | IC50 [11] [µM] | inhibition in vivo at 100 mg/kg [12] [%] | Activity [13] | inhibition in vivo at 50 mg/kg [14] [%] | inhibition in vivo at 25 mg/kg/day [15] [%] |
| --- | --- | --- | --- | --- | --- | --- | --- | --- | --- | --- | --- | --- | --- | --- | --- |
| O=C1CN(CCCCCl)c2ccc([N+](=O)[O-])cc2N1 | 73 |  |  |  |  |  |  |  |  |  |  |  |  |  |  |
| O=C1CN(CCCCCCl)c2ccc([N+](=O)[O-])cc2N1 | 73 |  |  |  |  |  |  |  |  |  |  |  |  |  |  |
| CN1C(=O)CN(CCCCCl)c2ccc([N+](=O)[O-])cc21 | 73 |  |  |  |  |  |  |  |  |  |  |  |  |  |  |
| CN1C(=O)CN(CCCCCCCl)c2ccc([N+](=O)[O-])cc21 | 94 |  |  |  |  |  |  |  |  |  |  |  |  |  |  |
| O=C1CN(CCCCCCCl)c2ccc([N+](=O)[O-])cc2N1 | 73 |  |  |  |  |  |  |  |  |  |  |  |  |  |  |
| CN(C)CCN1CC(=O)Nc2cc([N+](=O)[O-])ccc21.Cl | 7 | > 300 | 28.4 | 83.7 | >10 | 96.9 | 40.8 | 5.16 | 0 | 98.5 | 36.8 |  |  |  |  |
| CCN(CC)CCCN1CC(=O)Nc2cc([N+](=O)[O-])ccc21.Cl |  | > 300 | 28.8 | 59 | >10 | 64.2 | 55.5 | 23.1 | 0.16 | 88.6 | 38.9 |  |  |  |  |
| Cl.O=C1CN(CCN2CCCCC2)c2ccc([N+](=O)[O-])cc2N1 |  | > 300 | 32.7 | 78.3 | >10 | 82.2 | 45.6 | 26 | 1.51 | 99 | 30.7 |  |  |  |  |
| Cl.O=C1CN(CCCN2CCCCC2)c2ccc([N+](=O)[O-])cc2N1 | 7 | > 300 | 58.4 | 82.4 | >10 | 98.9 | 70.3 | 24.2 | 3.26 | 100 | 18.3 | 46.1 | Non-toxic | 50.7 |  |
| O=C1CN(CCCO)c2ccc([N+](=O)[O-])cc2N1 |  |  | 4.5 | 28.4 |  | 68.1 | 26.6 | 3.66 |  | 84 | 102 |  |  |  |  |
| CN(C)CCN1CC(=O)N(C)c2cc([N+](=O)[O-])ccc21 | 7 | 648 | 6.7 | 73.9 | 12.77 | 99.9 | 20.4 | 1.36 | 17.29 | 100 | 50.7 |  |  |  |  |
| CCN(CC)CCCN1CC(=O)N(C)c2cc([N+](=O)[O-])ccc21.Cl |  | 1240 | 14 | 96.1 | 38.07 | 100 | 55.5 | 1.8 | 10.81 | 100 | 32.4 |  |  |  |  |
| CN1C(=O)CN(CCN2CCCCC2)c2ccc([N+](=O)[O-])cc21 |  | > 300 | 13.9 | 96 | >10 | 100 | 59.6 | 7.8 | 0 | 100 | 29.9 |  |  |  |  |
| CN1C(=O)CN(CCCN2CCCCC2)c2ccc([N+](=O)[O-])cc21 | 7 |  | 18.6 | 28.4 |  | 63.3 | 26.6 | 6.97 |  | 99.3 | 110 |  |  |  |  |
| CN1C(=O)CN(CCCO)c2ccc([N+](=O)[O-])cc21 |  | > 300 | 19 | 48.4 | >10 | 77.2 | 33.4 | 6.39 | 5.07 | 94.8 | 60.7 |  |  |  |  |
| O=C1Nc2cc([N+](=O)[O-])ccc2N2CCCOC12 (centres undefined) |  | > 300 | 12.1 | 77.4 | >10 | 92.8 | 51.3 | 0.98 | 2.08 | 99.5 | 41.9 |  |  |  |  |
| Cn1c(=O)c(=O)[nH]c2cc([N+](=O)[O-])ccc21 |  |  | 17.8 | 38.6 |  | 39 | 33.7 | 8.89 |  | 41.7 | 111 |  |  |  |  |
| O=c1[nH]c2cc([N+](=O)[O-])ccc2n(CCCCCl)c1=O |  |  | 12.7 | 21.4 |  | 40.6 | 18 | 8.25 |  | 94.9 | 151 |  |  |  |  |
| O=c1[nH]c2cc([N+](=O)[O-])ccc2n(CCCCCCl)c1=O |  |  | 0.42 | 9.7 |  | 47.1 | 0.85 | 0 |  | 94 | 147 |  |  |  |  |
| O=c1[nH]c2cc([N+](=O)[O-])ccc2n(CCCCCBr)c1=O |  |  | 4.09 | 20.1 |  | 49 | 11.6 | 0 |  | 79.6 | 145 |  |  |  |  |
| O=c1[nH]c2cc([N+](=O)[O-])ccc2n(CCCCCCCl)c1=O |  |  | 17 | 45.1 |  | 70.8 | 15.1 | 9.43 |  | 95.8 | 106 |  |  |  |  |
| Cn1c(=O)c(=O)n(C)c2cc([N+](=O)[O-])ccc21 |  |  | 15.8 | 22.5 |  | 35.4 | 18.6 | 12.9 |  | 61.4 | 235 |  |  |  |  |
| Cn1c(=O)c(=O)n(CCCCCl)c2ccc([N+](=O)[O-])cc21 |  |  | 19.9 | 36.2 |  | 52.7 | 20.1 | 11.8 |  | 68.5 | 179 |  |  |  |  |
| Cn1c(=O)c(=O)n(CCCCCCl)c2ccc([N+](=O)[O-])cc21 |  | > 300 | 40.1 | 52.2 | >10 | 66.2 | 45.7 | 22.1 | 0 | 70.2 | 61.4 |  |  |  |  |
| Cn1c(=O)c(=O)n(CCCCCBr)c2ccc([N+](=O)[O-])cc21 |  |  | 21.5 | 40.9 |  | 42.8 | 26.9 | 17.8 |  | 51.1 | 256 |  |  |  |  |
| Cn1c(=O)c(=O)n(CCCCCCCl)c2ccc([N+](=O)[O-])cc21 |  | > 300 | 42.1 | 75.5 | >10 | 84.7 | 53.1 | 31.6 | 14.14 | 92.6 | 25.4 |  |  |  |  |
| CN1C(=O)CN(CCCCCCl)c2ccc([N+](=O)[O-])cc21 | 73 |  |  |  |  |  |  |  |  |  |  |  |  |  |  |
| Cc1ncc([N+](=O)[O-])n1CCO [METRONIDAZOLE] |  | > 600 | 96 | 100 | >10 | 100 | 99.4 | 82.7 | 0 | 100 | 4.16 |  |  |  | 94 |
